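Tested at 5 concentrations; 48 h exposure; 96-well plates; endpoints linearly interpolated, else capped at highest concentration. At the TGI there is no net growth.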
Tests used:
Assay in all cases: inhibition of tumour cell growth, NCI panel, 48 h
HCC-2998 colon = tested on: HCC-2998 colon
NCI-H522 lung = tested on: NCI-H522 lung
SR leukemia = tested on: SR leukemia
CAKI-1 renal = tested on: CAKI-1 renal
K-562 leukemia = tested on: K-562 leukemia
786-0 renal = tested on: 786-0 renal
CCRF-CEM leukemia = tested on: CCRF-CEM leukemia
HT29 colon = tested on: HT29 colon
EKVX NSCLC = tested on: EKVX NSCLC
SK-MEL-28 melanoma = tested on: SK-MEL-28 melanoma
A498 renal = tested on: A498 renal
NCI/ADR-RES ovarian = tested on: NCI/ADR-RES ovarian
RPMI-8226 leukemia = tested on: RPMI-8226 leukemia
SNB-19 CNS = tested on: SNB-19 CNS
SK-MEL-2 melanoma = tested on: SK-MEL-2 melanoma
SN12C renal = tested on: SN12C renal
UACC-257 melanoma = tested on: UACC-257 melanoma
T-47D breast = tested on: T-47D breast
HOP-62 NSCLC = tested on: HOP-62 NSCLC
SK-MEL-5 melanoma = tested on: SK-MEL-5 melanoma

Structure (SMILES) | TGI (HCC-2998 colon) [µM] | TGI (NCI-H522 lung) [µM] | TGI (SR leukemia) [µM] | TGI (CAKI-1 renal) [µM] | TGI (K-562 leukemia) [µM] | TGI (786-0 renal) [µM] | TGI (CCRF-CEM leukemia) [µM] | TGI (HT29 colon) [µM] | TGI (EKVX NSCLC) [µM] | TGI (SK-MEL-28 melanoma) [µM] | TGI (A498 renal) [µM] | TGI (NCI/ADR-RES ovarian) [µM] | TGI (RPMI-8226 leukemia) [µM] | TGI (SNB-19 CNS) [µM] | TGI (SK-MEL-2 melanoma) [µM] | TGI (SN12C renal) [µM] | TGI (UACC-257 melanoma) [µM] | TGI (T-47D breast) [µM] | TGI (HOP-62 NSCLC) [µM] | TGI (SK-MEL-5 melanoma) [µM]
CCOC(=O)C(NC(C)=O)(Nc1ccc(S(N)(=O)=O)cc1)C(F)(F)F (stereo not drawn) | > 100 | > 100 | > 100 | > 100 | > 100 | > 100 | > 100 | > 100 | > 100 | > 100 | > 100 | > 100 | > 100 | > 100 | > 100 | > 100 | > 100 | > 100 | > 100 | > 100
O=C1/C(=C/c2ccc(O)cc2)CCc2ccc([N+](=O)[O-])cc21 | > 100 | > 30.8 | > 100 | > 100 | > 100 | > 100 | > 100 | > 100 | > 100 | > 100 | > 100 | > 100 | > 100 | 98.7 | > 100 | > 100 | > 100 | > 100 | > 100 | > 100
COc1cc2c(c(O)c1OC)C(=O)[C@@H]1CCC(=O)N1C2c1ccccc1 (stereo partly drawn) | > 100 | > 100 | > 100 | > 100 | > 100 | > 100 | > 100 | > 100 | > 100 | > 100 | > 100 | > 100 | > 100 | > 100 | > 100 | > 100 | > 100 | > 100 | > 100 | –
O=C(NCCCNCCN1C(=O)c2cccc3cc([N+](=O)[O-])cc(c23)C1=O)c1cc(-c2ccccc2)nc2ccccc12 | 3.05 | 9.95 | 2.1 | 18.9 | 2.5 | 9.04 | 22.2 | 2.84 | 22.8 | 3.44 | 8.87 | 17.3 | 7.66 | 18.9 | 12.1 | 17.1 | 3.95 | 23.7 | 20.5 | 5.97
Cn1c(=O)c2nc3c(=O)n(C)c(=O)n(CC(N)=O)c3nc2n(C)c1=O | > 100 | > 100 | > 100 | > 100 | > 100 | > 100 | > 100 | > 100 | > 100 | > 100 | > 100 | > 100 | > 100 | > 100 | > 100 | > 100 | > 100 | > 100 | > 100 | > 100
O=S1(=O)c2ccccc2C(Nc2ccccc2)N1c1ccccc1 (stereo not drawn) | > 100 | 67.9 | > 100 | > 100 | > 100 | > 100 | > 100 | > 100 | > 100 | > 100 | > 100 | > 100 | > 100 | – | > 100 | > 100 | > 100 | 80 | > 100 | > 100
N#CC(C#N)=C/C=C/c1c(Cl)cccc1Cl | 3.34 | 3.06 | > 10 | 4.55 | 8.56 | 3.35 | > 10 | 3.25 | > 10 | 3.05 | 6.49 | 4.98 | 7.46 | > 10 | 3.47 | 3.9 | 2.99 | 6.19 | 8.87 | 3.28
Cc1c(/C=N/NC(=S)Nc2ccc(Cl)cc2)c(=O)n(-c2ccccc2)n1C | > 100 | 22.4 | > 100 | > 48.3 | > 100 | 31.2 | > 100 | > 100 | > 65.2 | > 100 | > 58.8 | 48.9 | > 100 | > 60.8 | 69 | > 100 | > 100 | > 83.9 | 27.5 | > 31.6
N/N=C(\c1nc2ccc([N+](=O)[O-])cc2[nH]c1=O)C(O)c1ccc(Cl)c(Cl)c1 (stereo not drawn) | > 100 | > 100 | > 100 | > 100 | > 100 | > 100 | > 100 | > 100 | > 100 | > 100 | > 100 | > 100 | > 100 | > 100 | > 100 | > 100 | > 100 | > 100 | > 100 | > 100
CC(=O)NC(Cc1ccccc1)NC(=O)O (stereo not drawn) | > 100 | > 100 | > 100 | > 100 | > 100 | > 100 | > 100 | > 100 | > 100 | > 100 | > 100 | > 100 | > 100 | > 100 | > 100 | > 100 | > 100 | > 100 | > 100 | > 100
COC(=O)c1ccccc1CC1Cc2cc3c(cc2C1=O)CCC3 (stereo not drawn) | > 100 | 27.1 | > 69 | > 100 | 44.5 | 89.3 | 62.7 | 41.4 | > 100 | > 100 | > 61.1 | 21.8 | 54.5 | > 100 | 19.7 | > 67.2 | 71.5 | 69.9 | > 94.4 | 20.9
Cc1cc2nc(C=C(C(F)(F)F)C(F)(F)F)sc2cc1C | 8.36 | 1.01 | 13.2 | 8.24 | > 100 | 5.17 | > 100 | 9.93 | 7.27 | 14.5 | 28.5 | 14.6 | 1.41 | 9.89 | 5.27 | 1.63 | 13.6 | 1.78 | 7.59 | 8.77
O=C1CSC(c2ccccc2)N1c1ccc(-n2c(-c3ccccc3)nc3ccccc3c2=O)cc1 (stereo not drawn) | > 100 | > 100 | > 100 | > 100 | > 100 | > 100 | > 100 | > 100 | > 100 | > 100 | > 100 | > 100 | > 100 | > 100 | > 100 | > 100 | > 100 | > 100 | > 100 | > 100
Cc1cc(C)nc(NS(=O)(=O)c2ccc(Nc3c4ccccc4nc4c(C(=O)NC(CO)(CO)CO)cccc34)cc2)n1 | 36.1 | 31.7 | 67.2 | > 100 | > 100 | > 100 | 58.9 | 70.8 | > 100 | 62.5 | > 100 | > 100 | 91.8 | > 100 | 44.4 | > 100 | > 100 | > 100 | > 100 | 44.5
O=C1OC(C2Cc3ccc4c(c3C2=O)CCC4)c2ccccc21 (stereo not drawn) | > 100 | > 100 | > 100 | > 100 | > 100 | > 100 | > 100 | > 100 | > 100 | > 100 | > 100 | > 100 | 85.1 | > 100 | > 100 | > 100 | > 100 | > 100 | > 100 | > 100
O/N=C(/CC(O)(C(F)(F)F)C(F)(F)F)c1ccccc1 | > 10 | > 10 | > 10 | > 10 | > 10 | > 10 | > 10 | > 10 | > 10 | > 10 | > 10 | > 10 | > 10 | > 10 | > 10 | > 10 | > 10 | > 10 | > 10 | > 10
CC(=O)OCC1OC(N2C(c3ccccc3)=CC(c3ccco3)C(C#N)=C2S)C(OC(C)=O)C(OC(C)=O)C1OC(C)=O (stereo not drawn) | 48.9 | > 39.8 | > 37.5 | 34.1 | > 100 | 5.93 | > 100 | > 100 | > 52.1 | > 75.5 | > 63.3 | 39.9 | > 45 | 38.7 | 65.4 | 26.2 | > 100 | > 67.9 | 19.5 | 17.9
